Source: publication PMC10257758 (Drug development research, 2023)
Values joined by “and” are separate entries in the source; they are usually repeats but may differ in a detail not shown here. Identical values can stand only once.

Columns and labels:
[1] = molecular target: CA XII (Homo sapiens, UniProt O43570); experiment: CA-catalysed CO2 hydration stopped-flow inhibition assay, CA XII; type: biochemical; settings: mean from 3 assays
[2] = molecular target: CA I (Homo sapiens, UniProt P00915); experiment: CA-catalysed CO2 hydration stopped-flow inhibition assay, CA I; type: biochemical; settings: mean from 3 assays
[3] = molecular target: CA II (Homo sapiens, UniProt P00918); experiment: CA-catalysed CO2 hydration stopped-flow inhibition assay, CA II; type: biochemical; settings: mean from 3 assays
[4] = molecular target: CA IX (Homo sapiens, UniProt Q16790); experiment: CA-catalysed CO2 hydration stopped-flow inhibition assay, CA IX; type: biochemical; settings: mean from 3 assays
[5] = tested on: HEK293 cells; experiment: MTS cytotoxicity / cell viability assay; type: cell-based, human; settings: low tumorigenic cells (HEK293)
[6] = MTS cytotoxicity / cell viability assay; type: cell-based, human; settings: human, HEK293 cells

Sequence of CA I (P00915 whole entry): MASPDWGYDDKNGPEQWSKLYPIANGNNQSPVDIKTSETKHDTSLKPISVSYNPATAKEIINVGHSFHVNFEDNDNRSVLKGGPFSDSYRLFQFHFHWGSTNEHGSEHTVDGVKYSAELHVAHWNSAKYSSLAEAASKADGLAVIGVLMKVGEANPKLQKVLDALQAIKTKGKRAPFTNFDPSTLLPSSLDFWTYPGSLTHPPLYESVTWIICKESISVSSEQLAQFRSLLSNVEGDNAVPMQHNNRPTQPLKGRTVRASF
Sequence of CA XII (O43570 25-354): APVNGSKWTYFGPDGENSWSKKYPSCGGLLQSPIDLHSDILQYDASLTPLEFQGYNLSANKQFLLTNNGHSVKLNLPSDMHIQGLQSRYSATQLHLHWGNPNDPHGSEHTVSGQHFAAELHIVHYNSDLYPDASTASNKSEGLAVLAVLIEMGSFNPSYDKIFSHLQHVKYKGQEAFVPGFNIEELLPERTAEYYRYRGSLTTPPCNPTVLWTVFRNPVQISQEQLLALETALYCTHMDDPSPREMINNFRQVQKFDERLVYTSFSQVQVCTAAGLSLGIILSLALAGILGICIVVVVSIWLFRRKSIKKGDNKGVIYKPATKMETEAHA

SMILES | Ki ([1]; cells/sentences stated in nM) | Ki ([2]; cells/sentences stated in nM) | Ki ([1]; μM unless stated) | Ki ([2]; μM unless stated) | Ki ([3]; μM unless stated) | Ki ([4]; μM unless stated) | Ki ([3]; cells/sentences stated in nM) | Ki ([4]; cells/sentences stated in nM) | general cytotoxic effect [5] | viability at 72 h, 100 µM [6]
CCOC(=O)c1cc2ccc(OCC(=O)Nc3ccc(S(N)(=O)=O)cc3)cc2oc1=O [5a, Ethyl 2-oxo-7-(2-oxo-2-((4-sulfamoylphenyl)amino)ethoxy)-2H-chromene-3-carboxylate] | 20.3 nM | 738 nM | – | – | – | – | – | – | – | –
CCOC(=O)c1cc2ccc(OCC(=O)Nc3ccc(S(=O)(=O)Nc4ncnc(OC)c4OC)cc3)cc2oc1=O [5b, Ethyl 7-(2-((4-(N-(5,6-dimethoxypyrimidin-4-yl)sulfamoyl)phenyl)amino)-2-oxoethoxy)-2-oxo-2H-chromene-3-carboxylate] | – | – | > 100000 nM | > 100000 nM | > 100 µM | > 100 µM | – | – | – | –
CCOC(=O)c1cc2ccc(OCC(=O)Nc3ccc(S(=O)(=O)NC(C)=O)cc3)cc2oc1=O [5c, Ethyl 7-(2-((4-(N-acetylsulfamoyl)phenyl)amino)-2-oxoethoxy)-2-oxo-2H-chromene-3-carboxylate] | – | – | 1900 nM | > 100000 nM | > 100 µM | 6.1 µM | – | – | – | –
NS(=O)(=O)c1ccc(NC(=O)c2cc3cc(Cl)ccc3oc2=O)cc1 [9b, 6-Chloro-2-oxo-N-(4-sulfamoylphenyl)-2H-chromene-3-carboxamide] | 28.4 nM | 818 nM | – | – | – | – | 0.064 µM and 0.0635 µM | 0.0523 µM | – | –
NS(=O)(=O)c1ccc(NC(=O)c2cc3cc(Br)ccc3oc2=O)cc1 [9c, 6-Bromo-2-oxo-N-(4-sulfamoylphenyl)-2H-chromene-3-carboxamide] | 16.2 nM | 1420 nM | – | – | – | – | 0.0854 µM | 0.0676 µM | – | –
NS(=O)(=O)c1ccc(NC(=O)c2cc3cc(Cl)cc(Cl)c3oc2=O)cc1 [9d, 6,8-Dichloro-2-oxo-N-(4-sulfamoylphenyl)-2H-chromene-3-carboxamide] | 46.3 nM | 2320 nM | – | – | – | – | 0.238 µM | 0.105 µM | – | –
COc1ccc2cc(C(=O)Nc3ccc(S(N)(=O)=O)cc3)c(=O)oc2c1 [9h, 7-Methoxy-2-oxo-N-(4-sulfamoylphenyl)-2H-chromene-3-carboxamide] | – | – | – | – | – | – | – | 0.0318 µM | – | –
COc1ccc(NS(=O)(=O)c2ccc(NC(=O)c3cc4cc(Cl)ccc4oc3=O)cc2)nn1 [11b, 6-Chloro-N-(4-(N-(6-methoxypyridazin-3-yl)sulfamoyl)phenyl)-2-oxo-2H-chromene-3-carboxamide] | – | – | > 100000 nM | > 100000 nM | > 100 µM | > 100 µM | – | – | – | –
COc1ccc(NS(=O)(=O)c2ccc(NC(=O)c3cc4cc(Cl)cc(Cl)c4oc3=O)cc2)nn1 [11d, 6,8-Dichloro-N-(4-(N-(6-methoxypyridazin-3-yl)sulfamoyl)phenyl)-2-oxo-2H-chromene-3-carboxamide] | – | – | > 100000 nM | > 100000 nM | > 100 µM | > 100 µM | – | – | – | –
Cc1nnc(NS(=O)(=O)c2ccc(NC(=O)c3cc4cc(Br)ccc4oc3=O)cc2)s1 [13c, 6-Bromo-N-(4-(N-(5-methyl-1,3,4-thiadiazol-2-yl)sulfamoyl)phenyl)-2-oxo-2H-chromene-3-carboxamide] | – | – | > 100000 nM | > 100000 nM | > 100 µM | > 100 µM | – | – | – | –
COc1cc(NS(=O)(=O)c2ccc(NC(=O)c3cc4cc(Br)ccc4oc3=O)cc2)nc(OC)n1 [14c, 6-Bromo-N-(4-(N-(2,6-dimethoxypyrimidin-4-yl)sulfamoyl)phenyl) −2-oxo-2H-chromene −3-carboxamide] | – | – | > 100000 nM | > 100000 nM | > 100 µM | > 100 µM | – | – | – | –
COc1cc(NS(=O)(=O)c2ccc(NC(=O)c3cc4ccccc4oc3=O)cc2)nc(OC)n1 [14e, N-(4-(N-(2,6-dimethoxypyrimidin-4-yl)sulfamoyl)phenyl)-2-oxo-2H-chromene-3-carboxamide] | – | – | > 100000 nM | > 100000 nM | > 100 µM | > 100 µM | – | – | – | –
CC(=O)NS(=O)(=O)c1ccc(NC(=O)c2cc3cc(Br)ccc3oc2=O)cc1 [15c, N-(4-(N-acetylsulfamoyl)phenyl)-6-bromo-2-oxo-2H-chromene-3-carboxamide] | – | – | 10600 nM | > 100000 nM | 46.8 µM | 0.91 µM | – | – | – | –
CC(=O)NS(=O)(=O)c1ccc(NC(=O)c2cc3ccccc3oc2=O)cc1 [15e, N-(4-(N-acetylsulfamoyl)phenyl)-2-oxo-2H-chromene-3-carboxamide] | – | – | 6300 nM | > 100000 nM | 10.3 µM | – | – | – | – | –
NS(=O)(=O)c1cccc(NC(=O)c2cc3cc(Br)ccc3oc2=O)c1 [16c, 6-Bromo-2-oxo-N-(3-sulfamoylphenyl)-2H-chromene-3-carboxamide] | 54.2 nM | 1960 nM | – | – | – | – | 0.0763 µM | 0.0144 µM | – | –
NS(=O)(=O)c1cccc(NC(=O)c2cc3ccccc3oc2=O)c1 [16e, 2-Oxo-N-(3-sulfamoylphenyl)-2H-chromene-3-carboxamide] | 69.8 nM | 193 nM | – | – | – | – | 0.0535 µM | 0.0189 µM | – | –
COc1ccc2oc(=O)c(C(=O)Nc3cccc(S(N)(=O)=O)c3)cc2c1 [16f, 6-Methoxy-2-oxo-N-(3-sulfamoylphenyl)-2H-chromene-3-carboxamide] | 52 nM and 52.1 nM | 774 nM | – | – | – | – | 0.212 µM | 0.005 µM | – | –
NS(=O)(=O)c1cccc(NC(=O)c2cc3cc(F)ccc3oc2=O)c1 [16i, 6-Fluoro-2-oxo-N-(3-sulfamoylphenyl)-2H-chromene-3-carboxamide] | 49.5 nM | 225 nM | – | – | – | – | 0.0752 µM | 0.0152 µM | – | –
COc1ccc2oc(=O)c(C(=O)Nc3cc(C(F)(F)F)c(S(N)(=O)=O)cc3S(N)(=O)=O)cc2c1 [18f, N-(2,4-disulfamoyl-5-(trifluoromethyl)phenyl)-6-methoxy-2-oxo-2H-chromene-3-carboxamide] | – | – | – | – | – | – | – | – | no general cytotoxic effect | 97%
CCN(CC)c1ccc2cc(C(=O)OCC(=O)Nc3ccc(S(N)(=O)=O)cc3)c(=O)oc2c1 [compound 22, 2-Oxo-2-((4-sulfamoylphenyl)amino)ethyl-7-(diethylamino)-2-oxo-2H-chromene-3-carboxylate] | 65.7 nM | 74.4 nM | – | – | – | – | 0.023 µM | 0.0196 µM | – | –
